What was measured:
EW-7 (Ewing's Sarcoma) = assay: Bliss excess, mean over the matrix (fraction); higher = more synergy
How it was run: (§1)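 Cell lines grown in DMEM/F12 or RPMI with 10% FBS were plated in 1536-well plates and held 24 hours at 37°C, 5% CO2 before 72 hours of exposure to two-drug dose matrices, with DMSO typically at 0.2%. CellTiter-Glo 2.0 luminescence gave viability, which was converted to inhibition. Vehicle wells were set to 0 and blank wells to 1. Combination Emax is the second-highest inhibition in the matrix, and Bliss excess is the observed combination effect minus the expected EA + EB − EA·EB, where EA and EB are the single-agent effects.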

769-P (Kidney Carcinoma) = assay: as above
How it was run: as §1

[1] = system: JHH-2 (Hepatocellular Carcinoma); assay: as above
How it was run: as §1

IM-9 (Non-Cancerous) = assay: as above
How it was run: as §1

[2] = system: NCI-H1703 (Squamous Cell Lung Carcinoma); assay: as above
How it was run: as §1

[3] = system: KYSE-220 (Esophageal Squamous Cell Carcinoma); assay: as above
How it was run: as §1

EB2 (Burkitt's Lymphoma) = assay: as above
How it was run: as §1

[4] = system: GA-10 (Burkitt's Lymphoma); assay: combination Emax (second highest fraction inhibited in the dose matrix, 72 h); higher = more inhibition; extreme values may be limits of the assay
How it was run: as §1

[5] = system: CA46 (Burkitt's Lymphoma); assay: as above
How it was run: as §1

[6] = system: DU-4475 (Breast Carcinoma); assay: as above
How it was run: as §1

[7] = system: CAL-27 (Oral Cavity Carcinoma); assay: as above
How it was run: as §1

[8] = system: G-402 (Other Solid Carcinomas); assay: as above
How it was run: as §1

[9] = system: CESS (Acute Myeloid Leukemia); assay: as above
How it was run: as §1

[10] = system: JIMT-1 (Breast Carcinoma); assay: as above
How it was run: as §1

A204 (Rhabdomyosarcoma) = assay: as above
How it was run: as §1

AU565 (Breast Carcinoma) = assay: as above
How it was run: as §1

[11] = system: HT55 (Colorectal Carcinoma); assay: as above
How it was run: as §1

[12] = system: TE-10 (Esophageal Squamous Cell Carcinoma); assay: as above
How it was run: as §1

[13] = system: JVM-2 (B-Cell Non-Hodgkin's Lymphoma); assay: as above
How it was run: as §1

[14] = system: huH-1 (Hepatocellular Carcinoma); assay: as above
How it was run: as §1
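Wherever Bliss excess, mean over the matrix is given: after 72 h of two-drug dosing.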

Structure (SMILES)	Bliss excess (EW-7 (Ewing's Sarcoma))	Bliss excess (769-P (Kidney Carcinoma))	Bliss excess [1]	Bliss excess (IM-9 (Non-Cancerous))	Bliss excess [2]	Bliss excess [3]	Bliss excess (EB2 (Burkitt's Lymphoma))	combination Emax [4]	combination Emax [5]	combination Emax [6]	combination Emax [7]	combination Emax [8]	combination Emax [9]	combination Emax [10]	combination Emax (A204 (Rhabdomyosarcoma))	combination Emax (AU565 (Breast Carcinoma))	combination Emax [11]	combination Emax [12]	combination Emax [13]	combination Emax [14]
Cc1cc2ncnn2cc1Nc1ncc2c(n1)n(C1CCOCC1)c(=O)n2C [AZD7648] + O=C(c1cc(Cc2n[nH]c(=O)c3ccccc23)ccc1F)N1CCN(C(=O)C2CC2)CC1 [Olaparib] (first compound max 10 µM, 7x7, partner max 10 µM)	-0.0027	-0.024	-0.0099	-0.0144	-0.0307	-0.0372	0.0055	0.569	0.221	0.565	0.347	0.41	0.37	0.252	0.246	0.213	0.129	0.233	0.624	0.198
CN(CCO)CC[C@H](CSc1ccccc1)Nc1ccc(S(=O)(=O)NC(=O)c2ccc(N3CCC([C@@H](O)c4ccccc4-c4ccc(Cl)cc4)CC3)cc2)cc1S(=O)(=O)C(F)(F)F [AZD4320] + C1CN(CCC1(C(=O)N[C@@H](CCO)C2=CC=C(C=C2)Cl)N)C3=NC=NC4=C3C=CN4 [Capivasertib] (first compound max 1 µM, 7x7, partner max 3 µM)	0.0586	-0.0478	-0.0031	-0.0399	0.0251	-0.0056	0.0549	0.586	0.251	0.883	0.191	0.327	0.69	0.2	0.266	0.413	0.292	0.231	0.702	0.197
CN(CCO)CC[C@H](CSc1ccccc1)Nc1ccc(S(=O)(=O)NC(=O)c2ccc(N3CCC([C@@H](O)c4ccccc4-c4ccc(Cl)cc4)CC3)cc2)cc1S(=O)(=O)C(F)(F)F [AZD4320] + Cn1cnc2c(F)c(Nc3ccc(Br)cc3Cl)c(C(=O)NOCCO)cc21 [Selumetinib] (first compound max 1 µM, 7x7, partner max 3 µM)	0.0295	0.0392	-0.0267	0.051	0.0103	0.043	-0.0592	0.491	0.19	1	0.661	0.553	0.95	0.268	0.325	0.421	0.721	0.562	0.889	0.291
Cc1cc2ncnn2cc1Nc1ncc2c(n1)n(C1CCOCC1)c(=O)n2C [AZD7648] + C[C@@H]1COCCN1C2=NC(=NC(=C2)C3(CC3)[S@](=N)(=O)C)C4=C5C=CNC5=NC=C4 [AZD6738] (first compound max 10 µM, 7x7, partner max 10 µM)	-0.0058	0.0264	-0.073	-0.0417	0.0089	-0.0122	-0.0604	0.981	0.492	0.912	0.431	0.602	0.847	0.788	0.439	0.416	0.429	0.887	0.842	0.8
CN(CCO)CC[C@H](CSc1ccccc1)Nc1ccc(S(=O)(=O)NC(=O)c2ccc(N3CCC([C@@H](O)c4ccccc4-c4ccc(Cl)cc4)CC3)cc2)cc1S(=O)(=O)C(F)(F)F [AZD4320] + CCN(CCO)CCCOc1ccc2c(Nc3cc(CC(=O)Nc4cccc(F)c4)[nH]n3)ncnc2c1 [AZD2811] (first compound max 1 µM, 7x7, partner max 1 µM)	0.126	0.0052	-0.0489	-0.0509	0.0384	0.0129	0.0254	0.661	0.356	0.971	0.752	0.776	0.937	0.319	0.261	0.34	0.376	0.463	0.801	0.297
CN(CCO)CC[C@H](CSc1ccccc1)Nc1ccc(S(=O)(=O)NC(=O)c2ccc(N3CCC([C@@H](O)c4ccccc4-c4ccc(Cl)cc4)CC3)cc2)cc1S(=O)(=O)C(F)(F)F [AZD4320] + C[C@@H]1COCCN1C2=NC(=NC(=C2)C3(CC3)[S@](=N)(=O)C)C4=C5C=CNC5=NC=C4 [AZD6738] (first compound max 1 µM, 7x7, partner max 10 µM)	0.0835	-0.0167	-0.0186	0.0007	0.0053	-0.0076	0.0248	0.979	0.362	1	0.498	0.84	0.987	0.871	0.438	0.494	0.707	0.84	0.908	0.823
Cc1cc2ncnn2cc1Nc1ncc2c(n1)n(C1CCOCC1)c(=O)n2C [AZD7648] + C=CCn1c(=O)c2cnc(Nc3ccc(N4CCN(C)CC4)cc3)nc2n1-c1cccc(C(C)(C)O)n1 [AZD1775] (first compound max 10 µM, partner max 1 µM)	0.0024	-0.0082	-0.0469	-0.0659	-0.0283	-0.0222	-0.0857	0.988	0.693	0.88	0.345	0.543	0.919	0.721	0.43	0.547	0.341	0.86	0.899	0.746
CN(CCO)CC[C@H](CSc1ccccc1)Nc1ccc(S(=O)(=O)NC(=O)c2ccc(N3CCC([C@@H](O)c4ccccc4-c4ccc(Cl)cc4)CC3)cc2)cc1S(=O)(=O)C(F)(F)F [AZD4320] + C[C@@H](Nc1cc(F)cc(F)c1)c1cc(C(=O)N(C)C)cc2c(=O)cc(N3CCOCC3)oc12 [AZD8186] (first compound max 1 µM, 7x7, partner max 3 µM)	-0.014	0.0227	-0.0485	0.0079	0.0398	-0.0227	-0.0196	0.85	0.196	1	0.659	0.681	0.935	0.316	0.451	0.364	0.422	0.618	0.892	0.229
Cc1cc2ncnn2cc1Nc1ncc2c(n1)n(C1CCOCC1)c(=O)n2C [AZD7648] + CCN(CCO)CCCOc1ccc2c(Nc3cc(CC(=O)Nc4cccc(F)c4)[nH]n3)ncnc2c1 [AZD2811] (first compound max 10 µM, 7x7, partner max 1 µM)	0.043	0.0313	-0.0763	-0.0432	-0.0392	0.0544	0.0607	0.852	0.418	0.23	0.583	0.663	0.243	0.348	0.467	0.366	0.229	0.335	0.7	0.561
CN(CCO)CC[C@H](CSc1ccccc1)Nc1ccc(S(=O)(=O)NC(=O)c2ccc(N3CCC([C@@H](O)c4ccccc4-c4ccc(Cl)cc4)CC3)cc2)cc1S(=O)(=O)C(F)(F)F [AZD4320] + C=CCn1c(=O)c2cnc(Nc3ccc(N4CCN(C)CC4)cc3)nc2n1-c1cccc(C(C)(C)O)n1 [AZD1775] (first compound max 1 µM, partner max 1 µM)	0.14	-0.0025	-0.0067	0.0638	0.0572	-0.047	0.0346	1	0.667	1	0.364	0.491	1	0.842	0.334	0.829	0.899	0.848	0.981	0.613
COc1cc2c(cc1OCCCCCOc1cc3c(cc1OC)C(=O)N1C=C(C)C[C@H]1C=N3)N=C[C@@H]1CC(C)=CN1C2=O [SG3199] + O=C(c1cc(Cc2n[nH]c(=O)c3ccccc23)ccc1F)N1CCN(C(=O)C2CC2)CC1 [Olaparib] (first compound max 0.001 µM, 7x7, partner max 10 µM)	-0.0341	-0.0643	-0.0244	-0.0059	-0.0451	-0.0151	-0.0259	0.324	0.157	0.838	0.288	0.364	0.182	0.139	0.178	0.138	0.149	0.107	0.466	0.142
Cc1cc2ncnn2cc1Nc1ncc2c(n1)n(C1CCOCC1)c(=O)n2C [AZD7648] + CN(C)CCCOc1ccc(-c2ccc3ncc4c(c3c2)n(C2CCOCC2)c(=O)n4C)cn1 [AZD0156] (first compound max 10 µM, 7x7, partner max 1 µM)	-0.03	-0.0086	-0.0441	-0.0509	-0.033	0.0204	-0.0217	0.446	0.288	0.0619	0.222	0.51	0.367	0.348	0.384	0.593	0.169	0.292	0.622	0.3

— the supplement of paper PMC11061612
